We go through 16 compounds from patent publication US12421238B2, “Selective dihydropyrrolopyrimidine JAK2 inhibitors” (CHENGDU JINRUI FOUNDATION BIOTECH CO., LTD., priority 2019, dated 2025).

The nature of data set [1]: Pharmacokinetic test in SD rats, intragastric administration. Type of data set: in vivo. The conditions noted are these: rat, po, single intragastric administration, 25 mg/kg, plasma; for Cmax: read-out: Blood concentration Cmax; for AUC(0-t): read-out: Curve area AUClast; for half-life: read-out: Half life t1/2 (converted); for Tmax: read-out: Time to peak Tmax. Here is the method: SD rats were used as the test animals.
Standard curve and preparation and processing of quality control samples:
Stock solution was diluted with 50% acetonitrile/water solution to obtain standard working solutions of 0.04, 0.10, 0.20, 0.40, 1.00, 2.00, 4.00 μg/mL, and quality control working solutions of 0.10, 1.00, 3.00 μg/mL. 2.50 μL of standard curve working solutions and quality control working solutions were added to 47.5 μL of blank rat plasma, respectively, to obtain standard curve solutions having analyte concentrations of 2.00, 5.00, 10.00, 20.00, 50.00, 100.00, 200.00 ng/mL and quality control samples having concentrations of 5.00, 50.00, and 150.00 ng/mL. 200 μL of acetonitrile (containing 5 ng/mL of the internal standard loratadine) was added. After vortexing for 3 minutes, the solutions were centrifuged at 15000 rpm at 4° C. for 15 minutes. 100 μL of the supernatant was taken for LC-MS/MS analysis. WinNonlin® 8.0 was used to calculate the experimental results.

The target in the next data set is JAK2 (Homo sapiens, UniProt O60674). Briefly: Kinase activity test on JAK2 (Caliper EZ Reader conversion rate). The following applies: for JAK1/JAK2 / JAK3/JAK2: ratio of IC50 values; for JAK1/JAK2: selectivity for JAK2 over JAK1; for JAK3/JAK2: selectivity for JAK2 over JAK3.
A further data set relates to TF-1. Briefly: TF-1 cell proliferation experiment (CellTiter Glo). The following applies: Homo sapiens; TF-1 cells, 72 hours; read-out: TF-1 (μM), proliferation inhibition. Type of data set: cell-based.
The test system of another data set is HEL92.1.7. Kind of data set: HEL92.1.7 cell proliferation experiment (Cell Titer-Glo). Type of data set: cell-based. The conditions noted are these: Homo sapiens, HEL 92.1.7; HEL92.1.7 cells, 72 hours.
A further data set deals with JAK1 (Homo sapiens, UniProt P23458). Kind of data set: Kinase activity test on JAK1 (Caliper EZ Reader conversion rate).
Another data set concerns the target T1, JAK3 (Homo sapiens, UniProt P52333).
T1 sequence (P52333 1-1124): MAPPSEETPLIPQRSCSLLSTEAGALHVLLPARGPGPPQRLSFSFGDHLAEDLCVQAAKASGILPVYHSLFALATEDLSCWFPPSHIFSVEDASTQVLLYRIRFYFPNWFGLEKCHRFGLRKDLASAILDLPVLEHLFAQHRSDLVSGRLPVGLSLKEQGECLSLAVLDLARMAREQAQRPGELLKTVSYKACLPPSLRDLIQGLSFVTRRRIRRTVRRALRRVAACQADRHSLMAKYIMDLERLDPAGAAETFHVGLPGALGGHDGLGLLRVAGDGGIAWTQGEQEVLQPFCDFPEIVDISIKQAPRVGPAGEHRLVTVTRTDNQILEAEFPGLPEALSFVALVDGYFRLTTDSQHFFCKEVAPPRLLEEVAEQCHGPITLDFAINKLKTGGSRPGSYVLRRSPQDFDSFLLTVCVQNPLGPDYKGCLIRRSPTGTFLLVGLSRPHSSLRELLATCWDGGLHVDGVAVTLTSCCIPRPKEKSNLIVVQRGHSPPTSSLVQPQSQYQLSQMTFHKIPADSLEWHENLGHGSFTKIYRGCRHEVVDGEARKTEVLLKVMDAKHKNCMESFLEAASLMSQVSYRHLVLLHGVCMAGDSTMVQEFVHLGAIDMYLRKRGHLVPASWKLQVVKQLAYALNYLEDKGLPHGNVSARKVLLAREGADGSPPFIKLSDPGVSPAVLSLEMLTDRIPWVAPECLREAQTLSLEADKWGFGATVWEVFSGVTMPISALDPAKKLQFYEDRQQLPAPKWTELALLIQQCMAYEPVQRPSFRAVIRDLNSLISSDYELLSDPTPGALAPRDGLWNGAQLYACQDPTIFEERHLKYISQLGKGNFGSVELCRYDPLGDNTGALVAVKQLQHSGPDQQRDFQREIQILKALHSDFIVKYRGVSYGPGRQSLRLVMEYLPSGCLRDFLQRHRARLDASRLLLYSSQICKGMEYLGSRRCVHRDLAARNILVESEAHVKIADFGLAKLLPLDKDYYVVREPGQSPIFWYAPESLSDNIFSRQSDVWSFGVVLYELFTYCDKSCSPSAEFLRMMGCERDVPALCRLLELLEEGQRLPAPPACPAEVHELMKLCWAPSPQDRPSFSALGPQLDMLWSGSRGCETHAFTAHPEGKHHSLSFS
Briefly: Kinase activity test on JAK3 (Caliper EZ Reader conversion rate).

A short description of data set [2]: Acute toxicity test, single oral administration to ICR mice (MTD). It counts as in vivo. The following applies: ICR, mouse, in vivo, po, read-out: MTD (maximum tolerated dose).

Structures are written as SMILES.

Chain of JAK1 (P23458 whole entry): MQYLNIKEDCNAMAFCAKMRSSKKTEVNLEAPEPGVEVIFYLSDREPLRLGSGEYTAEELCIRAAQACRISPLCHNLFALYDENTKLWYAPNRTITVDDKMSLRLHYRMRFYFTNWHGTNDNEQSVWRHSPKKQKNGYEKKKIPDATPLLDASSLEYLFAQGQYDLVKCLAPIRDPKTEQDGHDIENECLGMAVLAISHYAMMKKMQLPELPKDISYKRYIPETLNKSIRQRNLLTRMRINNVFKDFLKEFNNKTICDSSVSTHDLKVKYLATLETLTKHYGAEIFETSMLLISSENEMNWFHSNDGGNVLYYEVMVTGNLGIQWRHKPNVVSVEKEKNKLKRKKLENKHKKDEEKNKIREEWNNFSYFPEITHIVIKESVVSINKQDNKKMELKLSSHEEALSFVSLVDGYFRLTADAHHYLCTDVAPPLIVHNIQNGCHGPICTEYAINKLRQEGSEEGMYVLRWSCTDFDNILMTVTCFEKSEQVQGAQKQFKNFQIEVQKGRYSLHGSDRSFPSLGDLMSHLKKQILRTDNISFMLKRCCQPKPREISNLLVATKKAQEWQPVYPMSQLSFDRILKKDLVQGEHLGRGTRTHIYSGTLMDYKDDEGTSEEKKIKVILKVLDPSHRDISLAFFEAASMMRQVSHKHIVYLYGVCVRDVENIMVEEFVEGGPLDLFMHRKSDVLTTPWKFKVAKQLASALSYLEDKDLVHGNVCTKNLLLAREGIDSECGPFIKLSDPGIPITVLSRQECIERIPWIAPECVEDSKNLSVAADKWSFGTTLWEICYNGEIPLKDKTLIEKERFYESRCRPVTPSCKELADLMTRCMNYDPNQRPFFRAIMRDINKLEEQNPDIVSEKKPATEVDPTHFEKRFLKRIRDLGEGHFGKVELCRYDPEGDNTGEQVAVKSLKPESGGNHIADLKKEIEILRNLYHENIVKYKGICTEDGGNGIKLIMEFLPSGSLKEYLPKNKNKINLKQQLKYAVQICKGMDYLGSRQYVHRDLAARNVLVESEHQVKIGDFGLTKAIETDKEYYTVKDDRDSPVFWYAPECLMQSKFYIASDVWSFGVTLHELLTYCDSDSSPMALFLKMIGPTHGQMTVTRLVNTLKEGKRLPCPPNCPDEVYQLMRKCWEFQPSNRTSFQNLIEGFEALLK
Chain of JAK2 (O60674 whole entry): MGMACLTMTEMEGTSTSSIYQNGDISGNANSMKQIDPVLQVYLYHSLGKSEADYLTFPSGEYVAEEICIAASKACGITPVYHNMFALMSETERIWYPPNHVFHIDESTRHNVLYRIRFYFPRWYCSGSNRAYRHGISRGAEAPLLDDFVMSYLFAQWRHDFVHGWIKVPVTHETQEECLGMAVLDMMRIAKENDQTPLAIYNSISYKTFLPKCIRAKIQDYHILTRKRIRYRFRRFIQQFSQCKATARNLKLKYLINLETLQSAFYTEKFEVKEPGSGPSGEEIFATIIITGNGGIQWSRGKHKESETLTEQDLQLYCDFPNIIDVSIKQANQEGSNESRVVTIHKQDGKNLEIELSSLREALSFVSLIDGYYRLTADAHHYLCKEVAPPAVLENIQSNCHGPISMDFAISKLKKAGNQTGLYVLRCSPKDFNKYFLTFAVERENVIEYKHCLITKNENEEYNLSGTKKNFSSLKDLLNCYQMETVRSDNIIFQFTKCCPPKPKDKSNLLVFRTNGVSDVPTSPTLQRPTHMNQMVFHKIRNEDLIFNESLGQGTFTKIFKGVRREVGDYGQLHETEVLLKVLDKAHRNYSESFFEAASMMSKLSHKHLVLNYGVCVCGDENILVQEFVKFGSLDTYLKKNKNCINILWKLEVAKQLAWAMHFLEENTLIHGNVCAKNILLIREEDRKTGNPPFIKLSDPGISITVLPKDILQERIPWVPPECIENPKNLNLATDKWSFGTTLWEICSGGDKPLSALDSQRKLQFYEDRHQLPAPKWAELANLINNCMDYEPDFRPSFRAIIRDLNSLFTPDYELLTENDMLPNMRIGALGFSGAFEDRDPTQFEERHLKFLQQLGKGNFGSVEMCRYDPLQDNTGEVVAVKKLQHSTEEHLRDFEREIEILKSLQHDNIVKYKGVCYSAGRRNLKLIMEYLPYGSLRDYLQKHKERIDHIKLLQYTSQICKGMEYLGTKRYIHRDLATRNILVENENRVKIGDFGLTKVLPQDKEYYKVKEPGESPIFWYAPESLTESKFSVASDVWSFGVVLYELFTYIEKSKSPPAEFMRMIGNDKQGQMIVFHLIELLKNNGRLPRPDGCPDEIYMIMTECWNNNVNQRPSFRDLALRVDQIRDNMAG

In the case of `CC(C)(C)NS(=O)(=O)c1cccc(N2CCc3cnc(Nc4ccc(OCCN5CCOCC5)cc4)nc32)c1` [Compound I-3], in data set [1], the Cmax was determined as 1230 ng/mL, the AUC(0-t) came to 903 ng·h/mL, the half-life was 5.9 h and the Tmax turned out to be 1.5 h. Besides, on JAK2, the IC50 came to 1 nM, the JAK1/JAK2 is reported as 100 and the JAK3/JAK2 was determined as 877. Moreover, the IC50 in the data set on TF-1 came to 0.18 µM. For the same compound, in the data set with HEL92.1.7, the IC50 turned out to be 0.19 µM. The compound further returned an IC50 on JAK1 of 100 nM. Also, the IC50 at JAK3 worked out at 877 nM.

For `CC(C)(C)NS(=O)(=O)c1cccc(N2CCc3cnc(Nc4ccc(OCCN5CCCCC5)cc4)nc32)c1` [Compound I-5], in data set [1], the Cmax was 1120 ng/mL, the AUC(0-t) was found to be 812 ng·h/mL, the half-life was 6.1 h and the Tmax was 1.5 h. Also, at JAK2, the IC50 is 1.1 nM, the JAK1/JAK2 came out at 90 and the JAK3/JAK2 is on record as 1118. In the data set on TF-1, the IC50 amounted to 0.22 µM. In the data set on HEL92.1.7, the IC50 is 0.18 µM. In addition, on JAK1, the IC50 amounted to 99 nM. Besides, at JAK3, the IC50 was 1230 nM.

`CC(C)(C)NS(=O)(=O)c1cccc(N2CCc3cnc(Nc4ccc(OCCN5CCS(=O)(=O)CC5)cc4)nc32)c1` [Compound I-6]: the IC50 at JAK2 turned out to be 0.75 nM; in the data set on TF-1, 0.15 µM; in the data set with HEL92.1.7, 0.35 µM; on JAK1, 97 nM; against JAK3, 890 nM. The JAK1/JAK2 on JAK2 worked out at 129. The JAK3/JAK2 at JAK2 was 1187.

As to `CN1CCC(Cc2ccc(Nc3ncc4c(n3)N(c3cccc(S(=O)(=O)NC(C)(C)C)c3)CC4)cc2)CC1` [Compound I-7], the IC50 at JAK2 was 0.9 nM; in the data set with TF-1, 0.19 µM; with HEL92.1.7 it was 0.25 µM; against JAK1 it was 103 nM; against JAK3 it was 900 nM. Besides, the JAK1/JAK2 on JAK2 is listed as 114. Besides, the JAK3/JAK2 on JAK2 was determined as 1000.

With `CCN1CCN(Cc2ccc(Nc3ncc4c(n3)N(c3cccc(S(=O)(=O)NC(C)(C)C)c3)CC4)cc2)CC1` [Compound I-8], the IC50 worked out at 1.2 nM at JAK2; 0.23 µM with TF-1; 0.33 µM in the data set on HEL92.1.7; 151 nM against JAK1; 1000 nM at JAK3. Also, the JAK1/JAK2 at JAK2 was found to be 126. Moreover, the JAK3/JAK2 at JAK2 was determined as 833.

As to `CC(C)(C)NS(=O)(=O)c1cccc(N2CCc3cnc(Nc4ccc(CN5CCS(=O)(=O)CC5)cc4)nc32)c1` [Compound I-9], the IC50 amounted to 1.7 nM at JAK2; 0.21 µM with TF-1; 0.17 µM with HEL92.1.7; 191 nM at JAK1; 1330 nM against JAK3. Also, the JAK1/JAK2 on JAK2 is listed as 112. Also, the JAK3/JAK2 on JAK2 was 782.

Regarding `CC(C)(C)NS(=O)(=O)c1cccc(N2CCc3cnc(Nc4ccc(CC5CCOCC5)cc4)nc32)c1` [Compound I-10], the IC50 at JAK2 amounted to 0.5 nM; in the data set on TF-1, 0.19 µM; in the data set on HEL92.1.7, 0.2 µM; on JAK1, 100 nM; against JAK3 it was 987 nM. In addition, the JAK1/JAK2 at JAK2 was 200. In addition, at JAK2, the JAK3/JAK2 worked out at 1974.

Regarding `CC(C)(C)NS(=O)(=O)c1cccc(N2CCc3cnc(Nc4ccc(CN5CCOCC5)cc4)nc32)c1` [Compound I-11], the IC50 on JAK2 is 0.8 nM; with TF-1 it was 0.17 µM; in the data set with HEL92.1.7, 0.24 µM; at JAK1, 105 nM; against JAK3, 980 nM. Besides, the JAK1/JAK2 on JAK2 came to 131. Moreover, the JAK3/JAK2 at JAK2 was determined as 1225.

Consider `CN1CCN(Cc2ccc(Nc3ncc4c(n3)N(c3cccc(S(=O)(=O)NC(C)(C)C)c3)CC4)cc2)CC1` [Compound I-12], for which the IC50 at JAK2 stood at 0.7 nM; in the data set with TF-1, 0.2 µM; with HEL92.1.7 it was 0.22 µM; against JAK1 it was 98 nM; against JAK3, 879 nM. Further, the JAK1/JAK2 on JAK2 was determined as 140. In addition, the JAK3/JAK2 at JAK2 was found to be 1256.

As for `CC(C)(C)NS(=O)(=O)c1cccc(N2CCc3cnc(Nc4ccc(OCCN5CCSCC5)cc4)nc32)c1` [Compound I-14], in data set [1], the Cmax came to 1230 ng/mL, the AUC(0-t) was 900 ng·h/mL, the half-life was 6.9 h and the Tmax amounted to 1.5 h. Besides, at JAK2, the IC50 turned out to be 1.1 nM, the JAK1/JAK2 came to 93 and the JAK3/JAK2 is recorded as 907. Also, in the data set on TF-1, the IC50 is 0.28 µM. In addition, the IC50 with HEL92.1.7 worked out at 0.43 µM. The compound further returned an IC50 against JAK1 of 102 nM. On JAK3, this compound returned an IC50 of 998 nM.

`CC(C)(C)NS(=O)(=O)c1cccc(N2CCc3cnc(Nc4ccc(N5CCNCC5)cc4)nc32)c1` [Compound I-16]: the IC50 on JAK2 is 2 nM; in the data set on TF-1, 0.15 µM; in the data set on HEL92.1.7, 0.21 µM; against JAK1 it was 203 nM; at JAK3 it was 1390 nM. Further, the JAK1/JAK2 at JAK2 came to 101. Moreover, the JAK3/JAK2 at JAK2 is on record as 695.

For the compound `CC(C)(C)NS(=O)(=O)c1cccc(N2CCc3cnc(Nc4ccc(N5CCOCC5)cc4)nc32)c1` [Compound I-17], the IC50 was determined as 2.2 nM on JAK2; 0.14 µM in the data set with TF-1; 0.25 µM with HEL92.1.7; 221 nM at JAK1; 1560 nM on JAK3. In addition, the JAK1/JAK2 on JAK2 was 100. Moreover, at JAK2, the JAK3/JAK2 was 709.

As to `CC(C)(C)NS(=O)(=O)c1cccc(N2CCc3cnc(Nc4ccc(N5CCCCC5)cc4)nc32)c1` [Compound I-18], the IC50 on JAK2 amounted to 0.7 nM; with TF-1 it was 0.15 µM; with HEL92.1.7 it was 0.2 µM; against JAK1, 109 nM; at JAK3, 1110 nM. The JAK1/JAK2 on JAK2 came to 156. Also, the JAK3/JAK2 on JAK2 stood at 1588.

Regarding `CN1CCC(c2ccc(Nc3ncc4c(n3)N(c3cccc(S(=O)(=O)NC(C)(C)C)c3)CC4)cc2)CC1` [Compound I-21], the IC50 against JAK2 was 0.8 nM; with TF-1, 0.15 µM; in the data set with HEL92.1.7, 0.22 µM; on JAK1 it was 101 nM; against JAK3, 988 nM. Besides, the JAK1/JAK2 at JAK2 came to 126. Moreover, the JAK3/JAK2 at JAK2 turned out to be 1235.

As for `CC(C)(C)NS(=O)(=O)c1cccc(N2CCc3cnc(Nc4ccc(CN5CCCC5)cc4)nc32)c1` [Compound I-22], the IC50 is 0.6 nM on JAK2; 0.22 µM in the data set on TF-1; 0.24 µM in the data set on HEL92.1.7; 105 nM against JAK1; 873 nM against JAK3. The JAK1/JAK2 at JAK2 stood at 175. The JAK3/JAK2 at JAK2 is 1455.

Turning to `Cc1cnc(Nc2ccc(OCCN3CCCC3)cc2)nc1Nc1cccc(S(=O)(=O)NC(C)(C)C)c1` [Fedratinib, reference compound], the MTD at 6 days in data set [2] worked out at 250 mg/kg. Besides, in data set [1], the Cmax amounted to 579 ng/mL, the AUC(0-t) stood at 559 ng·h/mL, the half-life was 4 h and the time of peak concentration (Tmax) is 1.5 h. The IC50 in the data set on TF-1 is 1.57 µM. Moreover, in the data set with HEL92.1.7, the IC50 is 0.58 µM.
